# Source: US7271165B2, “Rifamycin analogs and uses thereof” (priority 2003, dated 2007)
# Where two headings read alike, the source gives them in different places.
# Assays:
# S. aureus = assay: MIC assay, S. aureus; type: cell-based, Staphylococcus aureus
# E coli = assay: MIC assay, E coli; type: cell-based
# E. faecalis = assay: MIC assay, E. faecalis; type: cell-based, Enterococcus faecalis
# S. pneumo. = assay: MIC assay, S. pneumo.; type: cell-based, Streptococcus pneumoniae
# H. flu = type: cell-based, H. influenza
Compound,MIC (μg/mL) S. aureus (S. aureus),MIC (μg/mL) E coli (E coli),MIC (μg/mL) E. faecalis (E. faecalis),MIC (μg/mL) S. pneumo. (S. pneumo.),MIC (μg/mL) H. flu (H. flu; H. flu),MIC (μg/mL) H. flu (H. flu)
COC1C=COC2(C)Oc3c(C)c(O)c4c(=O)c(c5oc6cc(N7CCN(Cc8ccccc8)CC7)cc(O)c6nc-5c4c3C2=O)NC(=O)C(C)=CC=CC(C)C(O)C(C)C(O)C(C)C(O)C1C (stereo not drawn) [Compound 86],0.03 µg/mL,>8 µg/mL,>8 µg/mL,0.001 µg/mL,8 µg/mL,
COC1C=COC2(C)Oc3c(C)c(O)c4c(=O)c(c5oc6cc(N7CC(C)NC(C)C7)cc(O)c6nc-5c4c3C2=O)NC(=O)C(C)=CC=CC(C)C(O)C(C)C(O)C(C)C(O)C1C (stereo not drawn) [Compound 87],0.008 µg/mL,4 µg/mL,0.06 µg/mL,0.0005 µg/mL,0.25 µg/mL,
CCC1CN(c2cc(O)c3nc4c5c6c7c(C)c(O)c5c(=O)c(c-4oc3c2)NC(=O)C(C)=CC=CC(C)C(O)C(C)C(O)C(C)C(O)C(C)C(OC)C=COC(C)(O7)C6=O)CC(CC)N1 (stereo not drawn) [Compound 88],0.03 µg/mL,4 µg/mL,0.12 µg/mL,0.0005 µg/mL,0.25 µg/mL,
COCCN1CCN(c2cc(O)c3nc4c5c6c7c(C)c(O)c5c(=O)c(c-4oc3c2)NC(=O)C(C)=CC=CC(C)C(O)C(C)C(O)C(C)C(O)C(C)C(OC)C=COC(C)(O7)C6=O)CC1 (stereo not drawn) [Compound 89],0.004 µg/mL,8 µg/mL,0.12 µg/mL,0.00025 µg/mL,0.25 µg/mL,
CCC1CN(c2cc(O)c3nc4c5c6c7c(C)c(O)c5c(=O)c(c-4oc3c2)NC(=O)C(C)=CC=CC(C)C(O)C(C)C(O)C(C)C(O)C(C)C(OC)C=COC(C)(O7)C6=O)CC(C)N1 (stereo not drawn) [Compound 90],0.004 µg/mL,4 µg/mL,0.5 µg/mL,0.00012 µg/mL,0.25 µg/mL,
CCOc1c(N2CCN(CC)CC2)ccc2nc3c4c5c6c(C)c(O)c4c(=O)c(c-3oc12)NC(=O)C(C)=CC=CC(C)C(O)C(C)C(O)C(C)C(O)C(C)C(OC)C=COC(C)(O6)C5=O (stereo not drawn) [Compound 91],0.008 µg/mL,8 µg/mL,0.5 µg/mL,0.0005 µg/mL,0.25 µg/mL,
CCOc1c(N2CCN(CCOC)CC2)cc(N2CCN(CCOC)CC2)c2nc3c4c5c6c(C)c(O)c4c(=O)c(c-3oc12)NC(=O)C(C)=CC=CC(C)C(O)C(C)C(O)C(C)C(O)C(C)C(OC)C=COC(C)(O6)C5=O (stereo not drawn) [Compound 92],0.12 µg/mL,>8 µg/mL,8 µg/mL,0.001 µg/mL,2 µg/mL,
CCOc1c(N2CCN(CCOC)CC2)ccc2nc3c4c5c6c(C)c(O)c4c(=O)c(c-3oc12)NC(=O)C(C)=CC=CC(C)C(O)C(C)C(O)C(C)C(O)C(C)C(OC)C=COC(C)(O6)C5=O (stereo not drawn) [Compound 93],0.015 µg/mL,>8 µg/mL,1 µg/mL,0.005 µg/mL,0.5 µg/mL,
COC1C=COC2(C)Oc3c(C)c(O)c4c(=O)c(c5n(C)c6cc(N7CC(C)NC(C)C7)ccc6nc-5c4c3C2=O)NC(=O)C(C)=CC=CC(C)C(O)C(C)C(O)C(C)C(O)C1C (stereo not drawn) [Compound 94],1 µg/mL,>8 µg/mL,>8 µg/mL,2 µg/mL,4 µg/mL,
COC1C=COC2(C)Oc3c(C)c(O)c4c(=O)c(c5oc6cc(N7CCN(C8CCN(C)CC8)CC7)cc(O)c6nc-5c4c3C2=O)NC(=O)C(C)=CC=CC(C)C(O)C(C)C(O)C(C)C(O)C1C (stereo not drawn) [Compound 95],0.015 µg/mL,>8 µg/mL,0.5 µg/mL,0.002 µg/mL,1 µg/mL,
COC1C=COC2(C)Oc3c(C)c(O)c4c(=O)c(c5oc6cc(N7CCN(CC8CC8)CC7)cc(O)c6nc-5c4c3C2=O)NC(=O)C(C)=CC=CC(C)C(O)C(C)C(O)C(C)C(O)C1C (stereo not drawn) [Compound 96],0.008 µg/mL,2 µg/mL,0.06 µg/mL,0.0005 µg/mL,0.25 µg/mL,
COC1C=COC2(C)Oc3c(C)c(O)c4c(=O)c(c5oc6cc(N7CC(C)NCC7C)cc(O)c6nc-5c4c3C2=O)NC(=O)C(C)=CC=CC(C)C(O)C(C)C(O)C(C)C(O)C1C (stereo not drawn) [Compound 97],0.004 µg/mL,4 µg/mL,0.12 µg/mL,0.0005 µg/mL,0.25 µg/mL,
COC1C=COC2(C)Oc3c(C)c(O)c4c(=O)c(c5oc6cc(N7CCN(CCO)CC7)cc(O)c6nc-5c4c3C2=O)NC(=O)C(C)=CC=CC(C)C(O)C(C)C(O)C(C)C(O)C1C (stereo not drawn) [Compound 98],0.008 µg/mL,8 µg/mL,0.12 µg/mL,0.0005 µg/mL,0.25 µg/mL,
COC1C=COC2(C)Oc3c(C)c(O)c4c(=O)c(c5oc6cc(N7CCN(c8ccccc8)CC7)cc(O)c6nc-5c4c3C2=O)NC(=O)C(C)=CC=CC(C)C(O)C(C)C(O)C(C)C(O)C1C (stereo not drawn) [Compound 99],0.004 µg/mL,4 µg/mL,0.06 µg/mL,0.001 µg/mL,0.25 µg/mL,
COC1C=COC2(C)Oc3c(C)c(O)c4c(=O)c(c5oc6cc(N7CCN(CCN(C)C)CC7)cc(O)c6nc-5c4c3C2=O)NC(=O)C(C)=CC=CC(C)C(O)C(C)C(O)C(C)C(O)C1C (stereo not drawn) [Compound 100],0.03 µg/mL,>8 µg/mL,0.5 µg/mL,0.008 µg/mL,0.12 µg/mL,
COC1C=COC2(C)Oc3c(C)c(O)c4c(=O)c(c5sc6cc(N7CCN(C)CC7)ccc6nc-5c4c3C2=O)NC(=O)C(C)=CC=CC(C)C(O)C(C)C(O)C(C)C(O)C1C (stereo not drawn) [Compound 101],0.002 µg/mL,2 µg/mL,0.12 µg/mL,0.00012 µg/mL,0.12 µg/mL,
COC1C=COC2(C)Oc3c(C)c(O)c4c(=O)c(c5oc6cc(N7CCNCC7)cc(O)c6nc-5c4c3C2=O)NC(=O)C(C)=CC=CC(C)C(O)C(C)C(O)C(C)C(O)C1C (stereo not drawn) [Compound 104],0.008 µg/mL,4 µg/mL,0.06 µg/mL,0.002 µg/mL,,0.12 µg/mL
CCOc1c(N2CCN(CC3CC3)CC2)ccc2nc3c4c5c6c(C)c(O)c4c(=O)c(c-3oc12)NC(=O)/C(C)=C\C=C\[C@H](C)[C@H](O)[C@@H](C)[C@@H](O)[C@@H](C)[C@H](O)[C@H](C)[C@@H](OC)/C=C/O[C@@](C)(O6)C5=O [Compound 105],0.03 µg/mL,>8 µg/mL,0.5 µg/mL,0.015 µg/mL,1 µg/mL,
CO[C@H]1/C=C/O[C@@]2(C)Oc3c(C)c(O)c4c(=O)c(c5oc6c(F)c(N7CCN(CC(C)C)CC7)ccc6nc-5c4c3C2=O)NC(=O)/C(C)=C\C=C\[C@H](C)[C@H](O)[C@@H](C)[C@@H](O)[C@@H](C)[C@H](O)[C@@H]1C [Compound 106],0.03 µg/mL,8 µg/mL,0.5 µg/mL,0.008 µg/mL,0.5 µg/mL,
COC1C=COC2(C)Oc3c(C)c(O)c4c(=O)c(c5oc6cc(N7CCN(C(=O)C8CC8)CC7)cc(O)c6nc-5c4c3C2=O)NC(=O)C(C)=CC=CC(C)C(O)C(C)C(O)C(C)C(O)C1C (stereo not drawn) [Compound 107],0.015 µg/mL,8 µg/mL,0.5 µg/mL,0.004 µg/mL,0.25 µg/mL,
CCc1cc2nc3c4c5c6c(C)c(O)c4c(=O)c(c-3oc2cc1N1CCCCC1)NC(=O)/C(C)=C\C=C\[C@H](C)[C@H](O)[C@@H](C)[C@@H](O)[C@@H](C)[C@H](O)[C@H](C)[C@@H](OC)/C=C/O[C@@](C)(O6)C5=O [Compound 108],1 µg/mL,1 µg/mL,4 µg/mL,0.12 µg/mL,2 µg/mL,
